{"source": "the NIST ThermoML archive (doi:10.1016/j.jct.2008.06.008)", "note": "Values joined by “and” are separate entries in the source; they are usually repeats but may differ in a detail not shown here. Equal entries are not always repeated. Numbers after ± are expanded uncertainties.", "data": [{"test": "molar heat capacity at constant pressure", "details": "298.15 K; 101.33 kPa; Liquid; Large sample (1 g) DSC", "values": [{"smiles": "ClCCl", "note": "[dichloromethane]", "molar heat capacity at constant pressure": "97.97 ± 2 J/K/mol and 95.61 ± 1.9 J/K/mol"}, {"smiles": "[2H]C(=O)N(C([2H])([2H])[2H])C([2H])([2H])[2H]", "note": "[N,N-dimethylformamide-d7]", "molar heat capacity at constant pressure": "160.5 ± 3.2 J/K/mol and 159.47 ± 3.2 J/K/mol"}, {"smiles": "CN(C)C=O", "note": "[dimethylformamide]", "molar heat capacity at constant pressure": "145.78 ± 2.9 J/K/mol and 144.02 ± 2.9 J/K/mol"}, {"smiles": "[2H]C([2H])([2H])O", "note": "[methanol-d3]", "molar heat capacity at constant pressure": "86.07 ± 1.7 J/K/mol and 84.91 ± 1.7 J/K/mol"}, {"smiles": "[2H]C1([2H])C([2H])([2H])C([2H])([2H])C([2H])([2H])C([2H])([2H])C1([2H])[2H]", "note": "[cyclohexane-d12]", "molar heat capacity at constant pressure": "185.6 ± 3.7 J/K/mol and 182.57 ± 3.6 J/K/mol"}, {"smiles": "CO", "note": "[methanol]", "molar heat capacity at constant pressure": "80.58 ± 1.6 J/K/mol and 79.07 ± 1.6 J/K/mol"}, {"smiles": "[2H]C([2H])([2H])S(=O)C([2H])([2H])[2H]", "note": "[(methyl sulfoxide)-d6]", "molar heat capacity at constant pressure": "165.76 ± 3.3 J/K/mol and 163.87 ± 3.3 J/K/mol"}, {"smiles": "c1ccccc1", "note": "[benzene]", "molar heat capacity at constant pressure": "133.82 ± 2.7 J/K/mol and 132.11 ± 2.6 J/K/mol"}, {"smiles": "[2H]C(Cl)(Cl)Cl", "note": "[chloroform-d]", "molar heat capacity at constant pressure": "114.94 ± 2.3 J/K/mol and 111.98 ± 2.2 J/K/mol"}, {"smiles": "CC#N", "note": "[acetonitrile]", "molar heat capacity at constant pressure": "89.62 ± 1.8 J/K/mol and 88.57 ± 1.8 J/K/mol"}, {"smiles": "CC(C)=O", "note": "[acetone]", "molar heat capacity at constant pressure": "122.74 ± 2.5 J/K/mol and 120.73 ± 2.4 J/K/mol"}, {"smiles": "C1CCCCC1", "note": "[cyclohexane]", "molar heat capacity at constant pressure": "154.34 ± 3.1 J/K/mol and 150.73 ± 3 J/K/mol"}, {"smiles": "[2H]C([2H])([2H])C(=O)C([2H])([2H])[2H]", "note": "[(D6)-2-propanone]", "molar heat capacity at constant pressure": "134.94 ± 2.7 J/K/mol and 133.6 ± 2.7 J/K/mol"}, {"smiles": "[2H]c1c([2H])c([2H])c(C([2H])([2H])[2H])c([2H])c1[2H]", "note": "[toluene-d8]", "molar heat capacity at constant pressure": "176.77 ± 3.5 J/K/mol and 174.28 ± 3.5 J/K/mol"}, {"smiles": "Cc1ccccc1", "note": "[toluene]", "molar heat capacity at constant pressure": "154.75 ± 3.1 J/K/mol and 152.53 ± 3 J/K/mol"}, {"smiles": "ClC(Cl)Cl", "note": "[trichloromethane]", "molar heat capacity at constant pressure": "112.71 ± 2.2 J/K/mol and 110.74 ± 2.2 J/K/mol"}, {"smiles": "[2H]C([2H])([2H])C#N", "note": "[acetonitrile-d3]", "molar heat capacity at constant pressure": "95.74 ± 1.9 J/K/mol and 95.02 ± 1.9 J/K/mol"}, {"smiles": "[2H]OC([2H])([2H])[2H]", "note": "[methanol-d4]", "molar heat capacity at constant pressure": "89.03 ± 1.8 J/K/mol and 87.75 ± 1.8 J/K/mol"}, {"smiles": "[2H]C([2H])(Cl)Cl", "note": "[dichloromethane-d2]", "molar heat capacity at constant pressure": "103.08 ± 2.1 J/K/mol and 101.49 ± 2 J/K/mol"}, {"smiles": "C[S+](C)[O-]", "note": "[dimethyl sulfoxide]", "molar heat capacity at constant pressure": "150.74 ± 3 J/K/mol and 149.05 ± 3 J/K/mol"}, {"smiles": "[2H]c1c([2H])c([2H])c([2H])c([2H])c1[2H]", "note": "[benzene-d6]", "molar heat capacity at constant pressure": "152.18 ± 3 J/K/mol and 149.82 ± 3 J/K/mol"}]}]}
